The source of these data is PMC5845165, “Pharmacokinetic Study of 7 Compounds Following Oral Administration of Fructus Aurantii to Depressive Rats” (Frontiers in Pharmacology, 2018).

Data set [1] in a line: Pharmacokinetic study in plasma of acute depressive rats after oral ZQ extract (LC-MS/MS). In kind it is in vivo, Sprague–Dawley rats. As to conditions: oral ZQ extract 20 g/kg; for AUC / AUC(0-t) / Cmax / Tmax / half-life: Sprague-Dawley, rat; for AUC: AUC0-∞; for half-life: male, po, 20 g/kg. The method, then:
(§1) Sample (200 μL) and 10 μL of mixed IS solution containing sulfamethoxazole (754 ng/mL) and honokiol (274 ng/mL) was added to Eppendorf tubes and extracted with 1 mL acetonitrile. The mixed solution was vortexed for 3 min and centrifuged at 10000 rpm for 10 min at 4°C to acquire the supernatant. The supernatant (800 μL) was moved to a clean Eppendorf tube, and then desiccated under a flow of nitrogen at 40°C. Finally, the residue was redissolved in 100 μL acetonitrile/water (90:10, v/v) with vortex-mixing for 3 min and centrifuged at 13000 rpm for 10 min. A 10 μL aliquot of the sample was injected into the LC/MS/MS system for analysis.
All of the rats were subjected to FST for 24 h before oral administration of the ZQ extract (20 g/kg). Plasma samples (about 0.5 mL) were gathered in a heparinized 1.5 mL Eppendorf tube from the venous plexus of the eye socket at 0.083, 0.25, 0.5, 0.75, 1.0, 1.5, 2.0, 3.0, 4.0, 6.0, 8.0, 12.0, and 24.0 h under anesthesia. Each sample was immediately centrifuged at 10000 rpm for 15 min to acquire the plasma. At last, the plasma was immediately placed at -80°C until measure.
All data were expressed as the mean ± SD. The plasma concentration of the 7 compounds during the experiment was calculated according to the daily calibration curve. The pharmacokinetic parameters, including Cmax (the peak drug plasma concentration), Tmax (the time to Cmax), AUC0-t (the area under the plasma concentration-time curve from 0 to time), AUC0-∞ (the area under the plasma concentration-time curve from 0 to time infinity), and t1/2 (the elimination half-life) were calculated by performing a non-compartment model using WinNonlin Professional Edition Version 2.1 (Pharsight Corporation, Sunnyvale, CA, United States). The immobile time in the FST test was evaluated by one-way ANOVA. Statistical significance was denoted at p < 0.05. Statistical analysis was operated by GraphPad Prism 5 software.

Data set [2] in a line: Qualitative LC/MS-MS identification in hippocampus and cortex after oral ZQ extract. In kind it is in vivo, Sprague–Dawley rats. The following applies: acute depressive rats, 0.5 h after oral ZQ extract 20 g/kg. The method, then: To identify the main active compounds of ZQ in target tissue, six rats subjected to FST were sacrificed under anesthesia 0.5 h after oral administration of ZQ extract (20 g/kg), and then the hippocampal and cortex tissue was separated rapidly from the brain on an ice tray and stored at -80°C. All tissues (∼50.0 mg) were homogenized with 1.5 mL of ice-cold 0.9% saline.
as §1

Data set [3] can be described thus: Stability of the analytes in rat plasma (QC samples). In kind it is in vitro ADME. The following applies: deviation from nominal conc. The method, then: The stabilities of the 7 analytes in rat plasma was evaluated by assaying six replicates of QC samples at low, middle, and high concentrations in practical experimental conditions: samples post-preparation stored in auto-sampler condition for 12 h, and storage at -80°C for 1 month. The freeze- thaw stability was determined after the experience of three freeze-thaw cycles (from -80°C to room temperature). Samples were identified as stable if the accuracy bias was within 15.0% of the nominal concentration.

Details of data set [4]: method as in Tong et al., 2012. The following applies: oral ZQ 3.2 g/kg, ref Tong et al., 2012; cited from earlier work.
[5] abbreviates: plasma, male SD rats subjected to FST, mean ± SD, n = 6.

For orientation: AUC means concentration integrated over time. By AUC(0-t) is commonly meant the area under the concentration-time curve up to a stated or last time point. Low values mean less exposure, high ones more exposure. By Cmax is commonly meant the peak of the concentration-time curve. What is called Tmax is the time from dosing to the highest level. The half-life is how long it takes for the measured level to halve. Low values mean fast loss, high ones slow loss.

As to `COc1ccc([C@@H]2CC(=O)c3c(O)cc(O[C@@H]4O[C@H](CO)[C@@H](O)[C@H](O)[C@H]4O[C@@H]4O[C@@H](C)[C@H](O)[C@@H](O)[C@H]4O)cc3O2)cc1O` [Neohesperidin, neohesperidin], in data set [1] (setting [5]), the exposure (AUC) is 239 ± 95.6 ng·h/mL, the area under the curve AUC(0-t) amounted to 234 ± 87.3 ng·h/mL, the peak concentration (Cmax) worked out at 90.8 ± 48.5 ng/mL and the Tmax turned out to be 0.29 ± 0.1 h. In data set [1] (setting [5]), this compound had a half-life of 2.02 ± 0.77 h. In data set [2], the “absorption into hippocampus and cortex (qualitative)” value is “absorbed into the hippocampus and cortex”. In data set [3] (high QC level), the “RE, -80°C for 1 month” value amounted to 2.03%; the “RE, Room temperature for 12 h” value came to 10.82%; the “RE, Three freeze-thaw cycles” value was -0.30%. Moreover, in data set [3] (low QC level), the “RE, -80°C for 1 month” value was determined as 3.31%; the “RE, Room temperature for 12 h” value is reported as -5.80%; the “RE, Three freeze-thaw cycles” value was determined as 7.23%. Besides, in data set [3] (middle QC level), the “RE, -80°C for 1 month” value is 3.13%; the “RE, Room temperature for 12 h” value was found to be 7.28%; the “RE, Three freeze-thaw cycles” value is on record as 5.88%. The “AUC0-∞ in healthy rats compared with this study” value in data set [4] is listed as “higher than the data obtained in our experiment”.
Turning to `COc1ccc2ccc(=O)oc2c1CC(O)C(C)(C)O` (centres unmarked) [Meranzin hydrate], in data set [1] (setting [5]), the AUC was found to be 1710 ± 350 ng·h/mL, the AUC(0-t) came to 1480 ± 259 ng·h/mL, the Cmax amounted to 222 ± 53.9 ng/mL and the Tmax came out at 1.25 ± 0.42 h. In data set [1] (setting [5]), this compound had a half-life above 7.3 h and a T1/2 of 7.31 ± 1.51 h. Also, the “AUC0-∞ relative to other flavonoids” value in data set [1] (depressive rats) is reported as “at least fivefold higher”. The “absorption into hippocampus and cortex (qualitative)” value in data set [2] is “absorbed into the hippocampus and cortex”. Further, in data set [3] (high QC level), the “RE, -80°C for 1 month” value is 9.41%; the “RE, Room temperature for 12 h” value was 7.34%; the “RE, Three freeze-thaw cycles” value is 3.48%. In data set [3] (low QC level), the “RE, -80°C for 1 month” value was 6.97%; the “RE, Room temperature for 12 h” value was determined as 11.26%; the “RE, Three freeze-thaw cycles” value is reported as 11.95%. In data set [3] (middle QC level), the “RE, -80°C for 1 month” value is on record as 7.29%; the “RE, Room temperature for 12 h” value stood at 2.66%; the “RE, Three freeze-thaw cycles” value was -13.99%.
In the case of `COc1ccc(-c2cc(=O)c3c(OC)c(OC)c(OC)c(OC)c3o2)cc1OC` [Nobiletin, nobiletin], in data set [1] (setting [5]), the AUC is 153 ± 40 ng·h/mL, the AUC(0-t) was found to be 151 ± 40.6 ng·h/mL, the Cmax turned out to be 53.9 ± 14.3 ng/mL and the Tmax was determined as 0.38 ± 0.14 h. For the same compound, the half-life in data set [1] (setting [5]) was 1.28 ± 0.87 h. The “absorption into hippocampus and cortex (qualitative)” value in data set [2] was “absorbed into the hippocampus and cortex”. For the same compound, in data set [3] (high QC level), the “RE, -80°C for 1 month” value was -1.14%; the “RE, Room temperature for 12 h” value stood at 4.48%; the “RE, Three freeze-thaw cycles” value was -6.73%. For the same compound, in data set [3] (low QC level), the “RE, -80°C for 1 month” value is given as -9.94%; the “RE, Room temperature for 12 h” value was -4.37%; the “RE, Three freeze-thaw cycles” value is reported as -7.88%. Besides, in data set [3] (middle QC level), the “RE, -80°C for 1 month” value is reported as -8.19%; the “RE, Room temperature for 12 h” value came to 5.03%; the “RE, Three freeze-thaw cycles” value is -7.62%.
On to `C[C@@H]1O[C@@H](OC[C@H]2O[C@@H](Oc3cc(O)c4c(c3)O[C@H](c3ccc(O)cc3)CC4=O)[C@H](O)[C@@H](O)[C@@H]2O)[C@H](O)[C@H](O)[C@H]1O` [Narirutin, narirutin], for which, in data set [1] (setting [5]), the AUC came out at 44.9 ± 9.99 ng·h/mL, the AUC(0-t) amounted to 42.6 ± 9.64 ng·h/mL, the Cmax was 31.1 ± 8.83 ng/mL and the Tmax was 0.33 ± 0.13 h. Moreover, the half-life in data set [1] (setting [5]) was 1.49 ± 0.42 h. The “absorption into hippocampus and cortex (qualitative)” value in data set [2] was “absorbed into the hippocampus and cortex”. In addition, in data set [3] (high QC level), the “RE, -80°C for 1 month” value was found to be 3.03%; the “RE, Room temperature for 12 h” value is 5.53%; the “RE, Three freeze-thaw cycles” value came to 7.94%. For the same compound, in data set [3] (low QC level), the “RE, -80°C for 1 month” value is 8.49%; the “RE, Room temperature for 12 h” value is 12.43%; the “RE, Three freeze-thaw cycles” value stood at 9.69%. Moreover, in data set [3] (middle QC level), the “RE, -80°C for 1 month” value is reported as 7.57%; the “RE, Room temperature for 12 h” value worked out at 1.84%; the “RE, Three freeze-thaw cycles” value worked out at 8.89%.
Turning to `COc1ccc([C@@H]2CC(=O)c3c(O)cc(O[C@@H]4O[C@H](CO[C@@H]5O[C@@H](C)[C@H](O)[C@@H](O)[C@H]5O)[C@@H](O)[C@H](O)[C@H]4O)cc3O2)cc1O` [Hesperidin, hesperidin], in data set [1] (setting [5]), the AUC is 179 ± 43.9 ng·h/mL, the exposure AUC(0-t) stood at 136 ± 23.7 ng·h/mL, the concentration peaked (Cmax) at 46 ± 7.32 ng/mL and the Tmax worked out at 0.42 ± 0.13 h. Moreover, the half-life in data set [1] (setting [5]) was 2.93 ± 0.88 h. For the same compound, the “absorption into hippocampus and cortex (qualitative)” value in data set [2] is “absorbed into the hippocampus and cortex”. Also, in data set [3] (high QC level), the “RE, -80°C for 1 month” value turned out to be 0.02%; the “RE, Room temperature for 12 h” value was found to be 4.88%; the “RE, Three freeze-thaw cycles” value was -1.62%. In addition, in data set [3] (low QC level), the “RE, -80°C for 1 month” value turned out to be 6.36%; the “RE, Room temperature for 12 h” value is reported as -1.88%; the “RE, Three freeze-thaw cycles” value stood at 4.08%. In addition, in data set [3] (middle QC level), the “RE, -80°C for 1 month” value stood at 4.15%; the “RE, Room temperature for 12 h” value stood at 0.91%; the “RE, Three freeze-thaw cycles” value is 5.80%.
Regarding `O=C1C[C@@H](c2ccc(O)cc2)Oc2cc(O)cc(O)c21` [Naringenin, naringenin], in data set [1] (setting [5]), the AUC is 226 ± 64.9 ng·h/mL, the AUC(0-t) was 188 ± 38.9 ng·h/mL, the Cmax stood at 78.1 ± 22.2 ng/mL and the Tmax is 0.42 ± 0.13 h. Besides, the half-life in data set [1] (setting [5]) was 4.37 ± 1.19 h. In addition, in data set [2], the “absorption into hippocampus and cortex (qualitative)” value is “absorbed into the hippocampus and cortex”. In addition, in data set [3] (high QC level), the “RE, -80°C for 1 month” value is listed as 3.14%; the “RE, Room temperature for 12 h” value is reported as -2.56%; the “RE, Three freeze-thaw cycles” value is recorded as -2.59%. In addition, in data set [3] (low QC level), the “RE, -80°C for 1 month” value is on record as -7.39%; the “RE, Room temperature for 12 h” value came out at 5.64%; the “RE, Three freeze-thaw cycles” value was -8.95%. In data set [3] (middle QC level), the “RE, -80°C for 1 month” value is given as -6.00%; the “RE, Room temperature for 12 h” value was 10.67%; the “RE, Three freeze-thaw cycles” value was -4.45%. Also, in data set [4], the “AUC0-∞ in healthy rats compared with this study” value was “higher than the data obtained in our experiment”.
With `C[C@@H]1O[C@@H](O[C@H]2[C@H](Oc3cc(O)c4c(c3)O[C@H](c3ccc(O)cc3)CC4=O)O[C@H](CO)[C@@H](O)[C@@H]2O)[C@H](O)[C@H](O)[C@H]1O` [Naringin, naringin], in data set [1] (setting [5]), the AUC was determined as 312 ± 89.5 ng·h/mL, the AUC(0-t) came to 293 ± 92 ng·h/mL, the maximum concentration (Cmax) was found to be 104 ± 18.8 ng/mL and the Tmax was found to be 0.42 ± 0.13 h. The compound also had a half-life in data set [1] (setting [5]) of 1.67 ± 0.57 h. Further, the “absorption into hippocampus and cortex (qualitative)” value in data set [2] is “absorbed into the hippocampus and cortex”. Also, in data set [3] (high QC level), the “RE, -80°C for 1 month” value came out at 4.57%; the “RE, Room temperature for 12 h” value worked out at 5.94%; the “RE, Three freeze-thaw cycles” value is reported as 0.56%. Further, in data set [3] (low QC level), the “RE, -80°C for 1 month” value was 12.29%; the “RE, Room temperature for 12 h” value was 5.84%; the “RE, Three freeze-thaw cycles” value is 9.33%. Moreover, in data set [3] (middle QC level), the “RE, -80°C for 1 month” value is 0.21%; the “RE, Room temperature for 12 h” value is listed as 6.83%; the “RE, Three freeze-thaw cycles” value turned out to be 4.34%. Also, the “AUC0-∞ in healthy rats compared with this study” value in data set [4] is reported as “higher than the data obtained in our experiment”.
